{
  "source": "paper PMC6550521",
  "about": "“Stress-Induced Changes in the Lipid Microenvironment of β-(1,3)-D-Glucan Synthase Cause Clinically Important Echinocandin Resistance in Aspergillus fumigatus” (mBio, 2019)",
  "key": {"[1]": {"target": "β-(1,3)-D-glucan synthase of RG101 (Aspergillus fumigatus, UniProt Q4WLT4)", "sequence (Q4WLT4 1-1904)": "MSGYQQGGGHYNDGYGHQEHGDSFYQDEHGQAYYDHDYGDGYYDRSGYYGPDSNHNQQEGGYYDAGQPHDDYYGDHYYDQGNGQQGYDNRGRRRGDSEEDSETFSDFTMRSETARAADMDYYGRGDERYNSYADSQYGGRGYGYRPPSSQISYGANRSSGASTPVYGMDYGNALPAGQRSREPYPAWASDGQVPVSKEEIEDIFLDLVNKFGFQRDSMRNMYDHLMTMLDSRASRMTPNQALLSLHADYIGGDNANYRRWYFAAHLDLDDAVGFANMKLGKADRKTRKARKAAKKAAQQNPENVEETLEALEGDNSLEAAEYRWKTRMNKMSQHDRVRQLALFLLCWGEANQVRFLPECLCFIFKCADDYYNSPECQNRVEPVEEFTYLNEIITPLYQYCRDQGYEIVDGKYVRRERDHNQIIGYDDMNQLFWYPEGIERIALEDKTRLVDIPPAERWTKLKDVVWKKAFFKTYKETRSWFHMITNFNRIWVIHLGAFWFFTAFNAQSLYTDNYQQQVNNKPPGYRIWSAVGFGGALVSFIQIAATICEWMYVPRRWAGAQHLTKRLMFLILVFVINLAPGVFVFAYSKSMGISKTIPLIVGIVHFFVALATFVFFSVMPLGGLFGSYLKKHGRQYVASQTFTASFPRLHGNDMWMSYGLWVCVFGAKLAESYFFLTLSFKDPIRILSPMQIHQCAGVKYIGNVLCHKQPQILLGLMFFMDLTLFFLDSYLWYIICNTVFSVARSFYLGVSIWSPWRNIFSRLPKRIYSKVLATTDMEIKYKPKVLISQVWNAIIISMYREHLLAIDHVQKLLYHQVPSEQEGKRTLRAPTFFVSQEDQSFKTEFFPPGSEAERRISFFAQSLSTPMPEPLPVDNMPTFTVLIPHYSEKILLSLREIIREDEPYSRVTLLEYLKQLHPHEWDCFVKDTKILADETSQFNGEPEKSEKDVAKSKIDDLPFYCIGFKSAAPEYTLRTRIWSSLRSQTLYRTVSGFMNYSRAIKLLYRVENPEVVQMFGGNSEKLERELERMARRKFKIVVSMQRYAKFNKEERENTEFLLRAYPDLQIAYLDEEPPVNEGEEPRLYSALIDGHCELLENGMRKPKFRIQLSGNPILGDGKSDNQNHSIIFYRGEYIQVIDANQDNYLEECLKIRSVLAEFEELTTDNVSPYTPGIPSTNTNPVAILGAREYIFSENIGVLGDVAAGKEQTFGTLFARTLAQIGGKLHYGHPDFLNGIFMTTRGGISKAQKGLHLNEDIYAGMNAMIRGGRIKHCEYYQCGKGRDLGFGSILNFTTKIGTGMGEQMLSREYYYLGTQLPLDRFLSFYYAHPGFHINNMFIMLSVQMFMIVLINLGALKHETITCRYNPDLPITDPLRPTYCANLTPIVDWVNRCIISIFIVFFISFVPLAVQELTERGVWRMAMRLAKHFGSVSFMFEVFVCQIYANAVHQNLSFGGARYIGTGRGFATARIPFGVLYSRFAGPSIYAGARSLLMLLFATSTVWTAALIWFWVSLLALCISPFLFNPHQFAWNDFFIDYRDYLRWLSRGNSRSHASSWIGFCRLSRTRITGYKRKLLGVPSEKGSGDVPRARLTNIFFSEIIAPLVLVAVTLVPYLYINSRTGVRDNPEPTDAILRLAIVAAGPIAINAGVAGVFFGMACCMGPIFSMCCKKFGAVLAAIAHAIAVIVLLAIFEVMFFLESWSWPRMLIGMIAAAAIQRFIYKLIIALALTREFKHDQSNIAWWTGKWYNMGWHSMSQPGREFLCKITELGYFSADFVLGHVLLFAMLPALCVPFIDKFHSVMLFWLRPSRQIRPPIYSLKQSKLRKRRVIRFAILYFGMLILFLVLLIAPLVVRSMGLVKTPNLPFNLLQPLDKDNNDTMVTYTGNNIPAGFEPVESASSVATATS", "experiment": "Glucan synthase kinetic inhibition assay, enzyme from RG101", "format": "biochemical", "experimental": "ATCC 13073 or RG101 was grown in liquid YPD medium at 37°C for 16 h. Partially purified glucan synthase was isolated by the product entrapment method, as previously described ([21]). Sensitivity to echinocandin drugs was measured by glucan synthase assay, using a 96-well multiscreen high-throughput screen filtration system (Millipore Corporation, Bedford, MA) in a final volume of 100 μl. Inhibition of the enzyme by the drug was analyzed after incubation of the enzyme with a radioactive substrate over a broad range of concentrations (0 to 10,000 ng/ml) of echinocandins for 1 h at room temperature. Radioactivity from the enzyme product, β-(1,3)-D-glucan, was measured. Inhibition profiles were determined using a sigmoidal response curve fitting algorithm with GraphPad Prism software (v 7.04).\nTo study the effect of lipids on the enzyme, dihydrosphingosine, phytosphingosine, or phytoceramide C2 (Sigma-Aldrich D6783, P2795, and C8105, respectively) was added directly to the assay mixture and coincubated with an echinocandin for 1 h at room temperature."}, "fks1 expression in RG101": {"test_system": "fks1 expression in RG101", "experiment": "fks1 expression by RT-PCR", "format": "cell-based, Aspergillus fumigatus", "conditions": "RG101, 16 h in YPD, CAS 1 and 4 μg/ml", "experimental": "Supplementary file : FIG S1 fks1 expression levels in RG101 under uninduced and CAS-induced conditions. RG101 conidia were grown for 16 h in YPD in the absence and presence of CAS (1 and 4 μg/ml), and expression levels of fks1 were compared using reverse transcription-PCR (RT-PCR). […] Download FIG S1, DOCX file, 0.02 MB."}, "[2]": {"target": "β-(1,3)-D-glucan synthase of clinical isolate 32458 (Aspergillus fumigatus, UniProt Q4WLT4)", "sequence (Q4WLT4 1-1904)": "as above", "experiment": "Glucan synthase kinetic inhibition assay, enzyme from clinical isolate 32458", "format": "biochemical", "conditions": "enzyme from isolate 32458 grown at 4 μg/ml CAS"}, "[3]": {"test_system": "Aspergillus fumigatus clinical isolate 2770", "experiment": "Antifungal susceptibility testing (MEC, CLSI M38-A2)", "format": "cell-based", "conditions": "clinical isolate 2770, fks1 WT", "experimental": "(§1) Minimum effective concentrations (MECs) for A. fumigatus strains were determined according to CLSI document M38-A2 ([48]) and defined as the lowest drug concentration that led to the growth of small, rounded, compact hyphal forms compared to the hyphal growth seen in the drug-free growth control wells. The following drugs (supplier) were tested: caspofungin (Merck & Co., Inc.), micafungin (Astellas Pharma US, Inc.), anidulafungin (Pfizer Inc.), itraconazole (Sigma-Aldrich), voriconazole (Pfizer Inc.), and amphotericin B (Sigma-Aldrich). In addition, rezafungin and ibrexafungerp were obtained from Cidara Therapeutics and Scynexis Inc., respectively."}, "[4]": {"test_system": "Aspergillus fumigatus clinical isolate 32458", "experiment": "Antifungal susceptibility testing (MEC, CLSI M38-A2)", "format": "cell-based", "conditions": "clinical isolate 32458, fks1 WT", "experimental": "as §1"}, "[5]": {"test_system": "Aspergillus fumigatus clinical isolate 32315", "experiment": "Antifungal susceptibility testing (MEC, CLSI M38-A2)", "format": "cell-based", "conditions": "clinical isolate 32315, fks1 WT", "experimental": "as §1"}, "[6]": {"test_system": "Aspergillus fumigatus clinical isolate 117", "experiment": "Antifungal susceptibility testing (MEC, CLSI M38-A2)", "format": "cell-based", "conditions": "clinical isolate 117, fks1 WT", "experimental": "as §1"}, "[7]": {"test_system": "Aspergillus fumigatus clinical isolate 68284B", "experiment": "Antifungal susceptibility testing (MEC, CLSI M38-A2)", "format": "cell-based", "conditions": "fks1 WT", "experimental": "as §1"}, "[8]": {"target": "β-(1,3)-D-glucan synthase of clinical isolate 2770 (Aspergillus fumigatus, UniProt Q4WLT4)", "experiment": "Glucan synthase kinetic inhibition assay, enzyme from clinical isolate 2770", "format": "biochemical", "conditions": "enzyme from isolate 2770 grown at 4 μg/ml CAS"}, "[9]": {"test_system": "reactive oxygen species (ROS) in A. fumigatus ATCC 13073", "experiment": "ROS production, DCFDA fluorescence assay", "format": "cell-based, Aspergillus fumigatus", "conditions": "1 μg/ml, 1 h exposure, compared with other echinocandins", "experimental": "(§2) ROS production in mycelia was measured using a protocol previously described by Blatzer et al. ([51]) with a few changes. Suspensions of 10^4 spores/ml of ATCC 13073 and RG101 were grown in static culture in complete supplement mixture (CSM) medium for 16 h in a 96-well microplate at 37°C. After incubation, the mycelia were washed once with CSM, 10 μM 2′,7′–dichlorofluorescin diacetate (DCFDA) dye was added, and cells were incubated in the dark at 37°C for 30 min. Cells were then washed three times with phosphate-buffered saline (PBS), and a final concentration of 1 μg/ml of each echinocandin in CSM medium was added to different wells. Fluorescence intensity (excitation at 485 nm and emission at 530 nm) was measured for 1 h in a microplate reader (Tecan Infinite M200 Pro). Mycelia stained with DCFDA without any drug were used as a control."}, "[10]": {"test_system": "reactive oxygen species (ROS) in A. fumigatus RG101", "experiment": "ROS production, DCFDA fluorescence assay", "format": "cell-based, Aspergillus fumigatus", "conditions": "1 μg/ml, 1 h exposure, DCFDA, compared with other echinocandins", "experimental": "as §2"}},
  "data": [
    {"smiles": "CC[C@H](C)C[C@H](C)CCCCCCCCC(=O)N[C@H]1C[C@@H](O)[C@@H](NCCN)NC(=O)[C@@H]2[C@@H](O)CCN2C(=O)[C@H]([C@H](O)CCN)NC(=O)[C@H]([C@H](O)[C@@H](O)c2ccc(O)cc2)NC(=O)[C@@H]2C[C@@H](O)CN2C(=O)[C@H]([C@@H](C)O)NC1=O", "note": "[CAS, caspofungin]", "values": [
      {"measurement": "Loss of sensitivity (IC50 shift) of glucan synthase from RG101 grown with CAS versus without", "setting": "[1]; RG101 grown in presence vs absence of CAS", "value": 4, "unit": "log orders"},
      {"measurement": "IC50", "setting": "[1]; enzyme from RG101 grown at 4 μg/ml CAS", "value": "> 9.15", "unit": "µM"},
      {"measurement": "fks1 expression levels, CAS-induced vs uninduced", "setting": "fks1 expression in RG101", "value": "No significant differences"},
      {"measurement": "IC50", "setting": "[2]", "value": "~4.57", "unit": "µM"},
      {"measurement": "MEC (minimum effective concentration)", "setting": "[3]", "value": 16, "unit": "µg/mL"},
      {"measurement": "MEC (minimum effective concentration)", "setting": "[4]", "value": 16, "unit": "µg/mL"},
      {"measurement": "MEC (minimum effective concentration)", "setting": "[5]", "value": 16, "unit": "µg/mL"},
      {"measurement": "MEC (minimum effective concentration)", "setting": "[6]", "value": 16, "unit": "µg/mL"},
      {"measurement": "MEC (minimum effective concentration)", "setting": "[7]", "value": 4, "unit": "µg/mL"},
      {"measurement": "IC50", "setting": "[8]", "value": "> 9.15", "unit": "µM"},
      {"measurement": "ROS levels induced in ATCC 13073", "setting": "[9]", "value": "highest levels"},
      {"measurement": "ROS levels induced in RG101", "setting": "[10]", "value": "highest levels"}
    ]}
  ]
}
